According to patent US9763908B2, “Composition containing monoacetyldiglyceride compound as active ingredient for preventing or treating atopic dermatitis” (ENZYCHEM LIFESCIENCES CORPORATION, priority 2013, dated 2017):

Columns and labels:
IL-4 [1] = assay: IL-4 level in serum (ELISA) of mice with DNCB-induced atopic dermatitis after oral EC-18; type: in vivo, mouse
Protocol: (§1) DNCB (1-Chloro-2,4-dinitrobenzene, Sigma Aldrich) was diluted to 0.2% by the solvent in which olive oil and acetone were mixed in a ratio of 1:4. Diluted DNCB was applied onto back of each 7-week-old Balb/c mouse whose hairs on back were removed. During the first week application was made seven times continuously, and from the second week, application was made every two days to induce atopy.
A mixture of EC-18 and olive oil was orally administrated to the mouse 7 times during the first week by 100 μl each time in dose of 2 mq/rat, and after then, for 11 times, was administered orally by 100 μl each time in dose of 1 mg/rat, that is the mixture was orally administrated totally 18 times. For the measurement of IL-4, blood was collected from veins under the eyes of mice treated, through ocular blood (Eye bleeding) method. […] After collecting the blood of about 350 μl in the EP tube, the blood was centrifuged to separate only serum and IL-4 present in the serum was analyzed by ELISA (enzyme-linked immunosorbent assay) method. […] When the color development is completed, the stop solution (2N H2SO4+DW) was dispensed by 100 μl, and the amount of color development at 450 nm wavelength was measured at ELISA Reader. […]

IgE = IgE level in serum (ELISA) of mice with DNCB-induced atopic dermatitis after oral EC-18; type: in vivo, mouse
Protocol: as §1
Using the serum separated from the mouse blood, was measured the expression levels of IgE in the ELISA method as shown in Experimental Example 1. In IgE ELISA for the mouse, IgE capture antibody (BD bioscience) was diluted with 1×PBS to 2 μg/ml, dispensed to each of 96-well plate (Thermo) by 200 μl, coated for 12 hours, washed using a wash buffer in which 0.05% tween 20 was diluted in 1×PBS. After washing three times, 1% BSA was dispensed to each well by 200 μl and blocking buffer was placed for 1 hour at room temperature (RT) conditions, and then final washing was performed._Thereafter, the serum obtained from the mice was dispensed to each well by 100 μl, and the wells were placed for reaction at room temperature for 1 hours after dispensing, and unreacted IgE is washed under the same conditions. […] When the color development is completed, the stop solution (2N H2SO4+DW) was dispensed by 50 μl, and the amount of color development at 450 nm wavelength was measured. […]

[2] = tested on: DNCB-induced atopic dermatitis in Balb/c mouse; assay: Visual inspection of the degree of atopic disease in the DNCB-induced mouse model; type: in vivo; settings: score 0 to 12
Protocol: as §1
Atopic disease models commonly used in the laboratory is a technique that induces contact Hypersensitivity (CHS) by sensitization to DNCB (1-Chloro-2,4-dinitro-benzene). This technique is a technique of inducing atopic by diluting DNCB with a solvent in which acetone and olive oil are mixed in a ratio of 4:1 to be 0.2%, and then smearing the diluted on the skin, and is for the experiment for adjusting and maintaining the expression time so that artificially severe atopy-like appearance appears could be observed two weeks after the smearing. The degree of atopic disease was evaluated by dividing the state of erythema/emorrhage, scarring/dryness, edema), excoriation/erosion which are induced on the skin, respectively into three steps (0=null, 1=mild, 2=moderate, 3=severe) and then assigning the score up to 12 from zero. It was induced in the experimental group and the control group that the time when severe atopic status ((visual inspection index of 10) is reached was two weeks after the smearing of DNCB. Further, in order to maintain this condition, after two weeks, DNCB smearing was performed every two days.
FIG. 4 is a photograph showing the degree of atopic disease for 3 weeks in mice of the EC-18 administration group (test group) and the mice of olive oil administration group (control group). […] In contrast, in the test group the administration of EC-18, visual inspection index was changed to 1 point after one week, 8 points after two weeks and 3 points after three weeks.

IL-4 [3] = assay: IL-4 from ConA-activated lymphocytes of normal healthy people given EC-18 for four weeks (ELISA); type: in vivo, human
Protocol: (§2) EC-18 was administered to the normal healthy people (36 people) four weeks. EC-18 Lymphocytes separated from the blood before administration and after administration were incubated with ConA (concanavalin A). In order to measure the cytokine (IFN-γ and IL-4) which is separated from the lymphocyte (T cell) activated by Con A, culture medium was incubated for 42 hours, and were stored frozen. Purified antibody (capture antibody) of cytokine to be measured was dispensed to well (Nunc-immuno module, polysorp) by 0.2 μg/well, and left overnight at 4° C. to coat antigen. After well washing, blocking buffer (1% bovine serum albumin) treatment was performed for about 1 hour to inhibit the nonspecific binding. After washing the well, a cell culture solution was placed into each well and the antibody was combined with coating antigen for 2 hours. […] After approximately 10-30 minutes, stop solution was added into the well and absorbance at 450-570 nm was measured with Automatic Microplate reader (Molecular Devices, CA, USA). In the same manner, absorbance according to cytokine solution concentration was measured to plot standard curve, and the amount of cytokine contained in the sample was calculated by substituting the absorbance of the sample group. The change amount of cytokine calculated in this manner and significance (P<0.05) were shown in flowing Table 1 and FIGS. 5-6.

IFN-γ = IFN-γ from ConA-activated lymphocytes of normal healthy people given EC-18 for four weeks (ELISA); type: in vivo, human
Protocol: as §2

[4] = tested on: atopic symptoms in patients; assay: Observation of atopic symptom alleviation in patients with atopic; type: in vivo, human; settings: 500 mg/day; 2 weeks (severe symptoms) or 2 days (mild skin rash); FIGS. 7 and 8
Protocol: To patients with severe atopic symptoms, the EC-18 was administrated every day at a dose of 500 mg/day for 2 weeks and atopic symptoms change which was taken were shown in FIG. 7. To a patient having a mild skin rash, the EC-18 was administrated every day at a dose of 500 mg/day for 2 days and atopic symptoms change which was taken were shown in FIG. 8.

sepsis animal model = settings: cecal-ligation-puncture sepsis model; stated as known; cited from earlier work
[5] = GLP toxicity test; stated as known; cited from earlier work
[6] = DNCB-induced atopic dermatitis model animals

For `CCCCC/C=C\C/C=C\CCCCCCCC(=O)OC(COC(C)=O)COC(=O)CCCCCCCCCCCCCCC` (centres unmarked) [EC-18, 1-palmitoyl-2-linoleoyl-3-acetylglycerol], the “IL-4 level compared to the untreated group (olive oil treatment group), in words” value (IL-4 [1]; [6]) was “significantly decreased”, the “reduction of IL-4 level” value (IL-4 [1]; serum, two weeks vs one week after administration, oral EC-18 in olive oil, olive oil control approximately 50%) was 80% and the “IgE level compared to the untreated group (olive oil treatment group), in words” value (IgE; [6]) was “significantly decreased”. For the same compound, the “reduction of IgE level” value (IgE; serum, two weeks vs one week after administration, oral EC-18, olive oil control approximately 22%) was “about 50%”, the visual inspection index ([2]; after one week, olive oil control 3 points) was 1 point and the visual inspection index ([2]; after three weeks, olive oil control 6 points) was 3 points. For the same compound, the visual inspection index ([2]; after two weeks, olive oil control 10 points) was 8 points, the “IL-4 after EC-18 administration” value (IL-4 [3]; N = 36, four weeks of administration, before administration 246.6 ± 186.9, P <0.001) was 96.1 ± 64.2 pg/mL and the “expression level of Th2 cytokine (IL-4), in words” value (IL-4 [3]; normal subjects, 4 weeks, FIG. 5) was “reduced the expression levels of Th2 cytokine (IL-4)”. For the same compound, the “IFN-γ after EC-18 administration” value (IFN-γ; N = 36, four weeks of administration, before administration 686.4 ± 162.2, P 0.473) was 611.9 ± 209.7 pg/mL, the “expression level of Th1 cytokine (IFN-γ), in words” value (IFN-γ; normal subjects, 4 weeks, FIG. 6) was “the change did not occur uniformly” and the atopic symptoms change [4] was “the atopic symptoms are relaxed”. The “survivability ratio of animals” value (sepsis animal model) was “increases survivability ratio of animals” and the toxicity [5] was “no-toxicity”.
